Measurements reported in ChEMBL document CHEMBL1201862, “PubChem BioAssay data set” (2004).
The source made the active and inactive calls.

How the values were obtained:
Melanocortin receptor 4 = Melanocortin receptor 4 (Homo sapiens, UniProt P32245); assay type: functional, cell-based;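 further: Cell-based assay with luminescence read-out, confirmatory dose-response testing for agonist activity of biased ligands at MC4R; human U2OS cells with tagged receptor and beta-arrestin; potency of agonists that increase receptor coupling to beta-arrestin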
[1] = bead-based luminescence quenchers, dual-tagged ARNT – biochemical, AlphaScreen, cherry-pick, artefact control for ARNT-TACC3 interaction inhibitor project, dose response (AID 651705); assay type: functional;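 further: AlphaScreen bead proximity signal that flags compounds interfering with the detection technology; potency reflects signal decrease which marks the compound as an assay artifact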
Beta-galactosidase = Beta-galactosidase (Escherichia coli, UniProt Q8VNN2); assay: Dose response counterscreen for EBI2 assay utilizing the enzyme, b-galactosidase.; assay type: functional
[2] = target: T1, Apoptotic protease-activating factor 1 (Homo sapiens, UniProt O14727); assay: SAR analysis of small molecule Activators of Apaf-1 in a Fluorescent assay.; assay type: functional; settings: read-out: EC50_Mean;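 further: caspase-3 cleavage of fluorogenic Rh110 DEVD substrate downstream of apoptosome activation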
T1 sequence (O14727 whole entry): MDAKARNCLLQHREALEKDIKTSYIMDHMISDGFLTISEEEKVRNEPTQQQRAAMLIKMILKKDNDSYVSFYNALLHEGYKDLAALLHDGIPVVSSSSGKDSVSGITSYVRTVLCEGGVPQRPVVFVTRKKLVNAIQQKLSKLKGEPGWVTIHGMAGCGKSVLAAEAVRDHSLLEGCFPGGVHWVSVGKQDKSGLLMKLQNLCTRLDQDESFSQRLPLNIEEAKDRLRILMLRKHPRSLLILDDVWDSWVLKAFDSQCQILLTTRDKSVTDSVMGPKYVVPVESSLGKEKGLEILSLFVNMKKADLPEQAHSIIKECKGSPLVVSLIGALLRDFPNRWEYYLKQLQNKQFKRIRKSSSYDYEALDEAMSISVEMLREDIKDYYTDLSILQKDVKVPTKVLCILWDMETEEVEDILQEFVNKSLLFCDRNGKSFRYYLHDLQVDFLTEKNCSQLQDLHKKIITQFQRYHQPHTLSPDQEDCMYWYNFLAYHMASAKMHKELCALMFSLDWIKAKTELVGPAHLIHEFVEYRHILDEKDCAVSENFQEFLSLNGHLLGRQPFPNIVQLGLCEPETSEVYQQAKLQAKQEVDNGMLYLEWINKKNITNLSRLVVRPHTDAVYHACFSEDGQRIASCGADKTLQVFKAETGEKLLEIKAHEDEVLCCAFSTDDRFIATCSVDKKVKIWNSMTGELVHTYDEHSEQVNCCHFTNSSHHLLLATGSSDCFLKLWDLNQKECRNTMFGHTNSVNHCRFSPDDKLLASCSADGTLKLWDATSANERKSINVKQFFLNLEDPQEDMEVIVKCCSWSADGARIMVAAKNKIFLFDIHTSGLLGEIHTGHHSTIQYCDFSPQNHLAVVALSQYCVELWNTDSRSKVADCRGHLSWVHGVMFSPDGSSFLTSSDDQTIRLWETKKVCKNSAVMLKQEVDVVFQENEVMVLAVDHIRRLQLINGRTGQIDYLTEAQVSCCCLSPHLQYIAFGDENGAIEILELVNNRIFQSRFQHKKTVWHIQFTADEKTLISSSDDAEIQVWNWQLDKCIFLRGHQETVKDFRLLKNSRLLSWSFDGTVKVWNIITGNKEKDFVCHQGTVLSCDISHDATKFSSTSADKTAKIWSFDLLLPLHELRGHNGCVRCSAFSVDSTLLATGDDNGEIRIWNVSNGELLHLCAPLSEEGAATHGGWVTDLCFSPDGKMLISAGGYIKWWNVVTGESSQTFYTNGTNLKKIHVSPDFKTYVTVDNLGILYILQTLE

[3] = general mammalian cell viability loss – inhibitor set, cherry-pick, set 2, cytotoxicity control for miR-122 modulator project, dose response (AID 720697); assay type: functional, cell-based
[4] = general mammalian cell viability loss – activator set, cherry-pick, cytotoxicity control for miR-122 modulator project, dose response (AID 720690); assay type: functional, cell-based;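 further: HEK293T human cells scored for general mammalian cytotoxicity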
[5] = activation of miR-122 Renilla sensor silencing – cell-based, Huh7 psiCHECK-miR122, Renilla luciferase, cherry-picked, dose response (AID 651956); assay type: functional;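 further: huh7 hepatoma cells stably carrying a psiCHECK-2 miR-122 sensor plasmid; renilla luciferase signal reporting endogenous miR-122 activity after 48 h compound exposure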

Sequence of Melanocortin receptor 4 (P32245 whole entry): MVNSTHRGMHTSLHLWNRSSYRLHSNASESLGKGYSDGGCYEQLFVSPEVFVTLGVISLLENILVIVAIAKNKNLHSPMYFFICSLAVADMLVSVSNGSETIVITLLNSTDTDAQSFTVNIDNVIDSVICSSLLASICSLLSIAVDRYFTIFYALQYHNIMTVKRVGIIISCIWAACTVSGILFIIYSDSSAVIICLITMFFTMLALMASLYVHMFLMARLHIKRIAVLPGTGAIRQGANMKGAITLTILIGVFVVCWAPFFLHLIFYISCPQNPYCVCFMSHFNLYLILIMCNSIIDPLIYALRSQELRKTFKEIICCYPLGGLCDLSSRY
Sequence of Beta-galactosidase (Q8VNN2 whole entry): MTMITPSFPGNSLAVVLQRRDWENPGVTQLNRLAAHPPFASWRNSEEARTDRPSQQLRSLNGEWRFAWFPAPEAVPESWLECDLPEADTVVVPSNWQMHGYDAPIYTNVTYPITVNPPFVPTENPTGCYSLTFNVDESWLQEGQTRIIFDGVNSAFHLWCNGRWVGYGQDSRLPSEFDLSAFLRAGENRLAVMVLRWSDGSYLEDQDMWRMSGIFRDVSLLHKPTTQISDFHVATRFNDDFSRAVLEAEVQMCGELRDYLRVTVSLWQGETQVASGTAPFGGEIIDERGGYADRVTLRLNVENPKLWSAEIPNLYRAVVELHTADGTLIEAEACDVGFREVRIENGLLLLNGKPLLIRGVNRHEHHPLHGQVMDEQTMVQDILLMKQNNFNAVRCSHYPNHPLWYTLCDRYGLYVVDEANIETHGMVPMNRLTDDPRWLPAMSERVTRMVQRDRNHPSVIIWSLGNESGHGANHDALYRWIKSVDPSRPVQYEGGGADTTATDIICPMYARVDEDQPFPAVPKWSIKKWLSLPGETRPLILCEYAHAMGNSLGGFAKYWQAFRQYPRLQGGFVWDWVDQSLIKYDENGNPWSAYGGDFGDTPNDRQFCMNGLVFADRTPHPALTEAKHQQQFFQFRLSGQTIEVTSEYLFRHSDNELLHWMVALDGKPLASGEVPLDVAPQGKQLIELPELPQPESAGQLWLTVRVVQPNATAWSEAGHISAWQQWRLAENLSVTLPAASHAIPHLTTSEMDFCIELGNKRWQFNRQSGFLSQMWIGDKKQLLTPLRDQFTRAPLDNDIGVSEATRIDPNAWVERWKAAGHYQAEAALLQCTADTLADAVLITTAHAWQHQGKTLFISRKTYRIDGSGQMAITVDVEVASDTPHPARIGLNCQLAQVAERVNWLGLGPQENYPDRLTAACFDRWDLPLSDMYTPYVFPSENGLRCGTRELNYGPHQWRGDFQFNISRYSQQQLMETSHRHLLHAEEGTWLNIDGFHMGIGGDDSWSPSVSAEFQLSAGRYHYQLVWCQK

CN(C)c1ccccc1-c1cc(NC=O)c2ncc(-c3cccc(C(F)(F)F)c3)n2c1
EC50 (Melanocortin receptor 4): > 89.2 µM (inactive)

Cc1nnc(NC(=O)c2ccc(S(=O)(=O)N3CCCCC3C)cc2)o1 (centres undefined)
AC50 [1]: 92.5 µM (active)

CCN(CC(=O)NCc1cccs1)C(=O)/C=C/c1ccc(C)cc1
IC50 (Beta-galactosidase): > 80 µM (inactive)

COc1ccc(S(=O)(=O)N2CCCCC2)cc1NC(=O)CCS(=O)(=O)c1ccc(C)cc1
EC50 [2]: > 100 µM (inactive)

Cc1ccc(C(=O)N2CCN(c3ccc(NC(=O)COc4ccccc4C)cc3)CC2)cc1
AC50 [3]: 15.2 µM (active)
AC50 [4]: 30.9 µM (active)
AC50 [5]: 18.7 µM (active)

CC(=O)Nc1cc(-c2ccccc2)cn2c(-c3ccc(F)cc3)cnc12
EC50 (Melanocortin receptor 4): > 89.2 µM (inactive)

N#Cc1ccc(OCC(=O)NCCCn2ccnc2)cc1
AC50 [1]: 95.7 µM (active)

CC(=O)Nc1ccc(C(C)C)cc1
EC50 [2]: > 100 µM (inactive)

C[C@@H]1CCCCO[C@H](CN(C)CC2CCCCC2)[C@H](C)CN([C@@H](C)CO)C(=O)c2cc(NC(=O)Nc3cccc4ccccc34)ccc2O1
AC50 [3]: 0.587 µM (active)
AC50 [4]: 10.6 µM (active)
AC50 [5]: 11.1 µM (active)

CCOc1ccccc1NC(=O)CCS(=O)(=O)c1cc2c(cc1Br)CCN2C(=O)C1CC1
EC50 [2]: > 100 µM (inactive)
